SMILES strings stand for the structures.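 Grown in 96-well plates, cells were treated for 48 hours with each compound at five concentrations. Insufficient inhibition: endpoint recorded as highest concentration tested. GI50 marks 50% less growth. TGI: concentration producing complete growth inhibition.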

Drawing on PubChem BioAssay (NCI), this text covers GI50 and TGI for eight compounds.

What all share (assay): NCI tumour cell line growth inhibition, 48 h
The test system of test [1] is SK-OV-3 ovarian.
Test [2] has as its system NCI-H23 lung.
The subject of test [3] is KM12 colon.
Test [4] relates to HT29 colon.
The test system of test [5] is ACHN renal.
Test [6] has as its system HCC-2998 colon.
In test [7] the test system is MOLT-4 leukemia.
Test [8] relates to SF-539 CNS.
The subject of test [9] is HS 578T breast.
Test [10] relates to HOP-92 NSCLC.

Regarding `O=C1/C(=C/c2ccc(Cl)cc2)CN(C(=O)C(Cl)Cl)C/C1=C\c1ccc(Cl)cc1`, the GI50 in test [1] is 0.531 µM; in test [2] it was 0.242 µM; in [3], 0.0912 µM; in [4] it was 0.0714 µM; in test [5] it was 0.214 µM; in [6] it was 0.182 µM. For the same compound, the GI50 in test [7] was 0.273 µM; in [8], 0.194 µM; in test [9], 0.312 µM; in [10] it was 0.249 µM. In addition, the TGI in test [1] amounted to 1.74 µM; in test [2], 0.887 µM; in test [3], 0.273 µM; in [4], 1.43 µM; in test [5], 0.475 µM; in test [6], 0.345 µM. The TGI in [7] was greater than 28.1 µM; in [8], 0.467 µM; in [9] it was 2.33 µM; in test [10], 1.01 µM.

For the compound `Cc1ccc2sc3c(NCCCNCCO)nc4ccccc4c3c(=O)c2c1`, the GI50 is 1.45 µM in [1]; 1.74 µM in [2]; 1.73 µM in [3]; 1.67 µM in [4]; 1.6 µM in [5]; 1.64 µM in [6]. The GI50 in test [7] is 1.81 µM; in [8], 1.68 µM; in test [9], 1.63 µM; in test [10], 1.28 µM. Further, the TGI in test [1] was determined as 3.02 µM; in test [2], 3.35 µM; in [3], 3.21 µM; in test [4] it was 3.36 µM; in test [5], 2.98 µM; in [6], 3.32 µM. Also, the TGI in [7] was determined as 3.55 µM; in test [8], 3.08 µM; in test [9], 3.7 µM; in test [10], 3.78 µM.

For the compound `Cn1cc(C2=C(c3c4n(c5ccccc35)CCC(CN)CC4)C(=O)NC2=O)c2ccccc21` (stereo not drawn), the GI50 in [1] is 4.99 µM; in [2], 5.05 µM; in [3] it was 3.88 µM; in test [4], 2.88 µM; in [5], 4.43 µM; in test [6], 4.43 µM. In addition, the GI50 in test [7] was 5.27 µM; in [8] it was 3.91 µM; in [9] it was 2.56 µM; in test [10], 2.92 µM. Further, the TGI was 11.6 µM in [1]; 10.9 µM in test [2]; 7.39 µM in test [3]; 9.29 µM in test [4]; 8.67 µM in test [5]; 8.46 µM in test [6]. Besides, the TGI in [7] was found to be 13.3 µM; in test [8] it was 7.35 µM; in test [9], 8.5 µM; in test [10] it was 7.69 µM.

For `Cc1cccc(N=C2c3cc([N+](=O)[O-])ccc3-c3c2cc([N+](=O)[O-])cc3[N+](=O)[O-])c1`, the GI50 in test [1] was greater than 100 µM; in test [2], 5.33 µM; in test [3], 5.06 µM; in [4] it was 4.11 µM; in test [5] it was 3.36 µM; in [6], 6.45 µM. For the same compound, the GI50 in test [7] is 3.64 µM; in [8], 17 µM; in [9], 11.3 µM; in [10] it was 2.47 µM. The TGI in [1] was greater than 100 µM; in test [2], 27.6 µM; in test [3], 20 µM; in test [4] it was 27.6 µM; in test [5], 11.5 µM; in test [6] it was 18.7 µM. Also, the TGI in [7] was greater than 100 µM; in [8], 37.8 µM; in test [9] it was 53.9 µM; in test [10], 7.17 µM.

As to `CN(C)CC1CCn2c(c(C3=C(c4cn(C)c5ccccc45)C(=O)NC3=O)c3ccccc32)C1` (stereo not drawn), the GI50 in test [1] is 4.62 µM; in test [2], 4.71 µM; in test [3] it was 4.14 µM; in [4], 3.16 µM; in [5], 3.88 µM; in [6], 4.65 µM. The GI50 is 4.74 µM in [7], 3.87 µM in [8], 2.31 µM in [9] and 1.78 µM in [10]. Further, the TGI was 10.5 µM in test [1]; 11.3 µM in test [2]; 8.26 µM in [3]; 7.83 µM in test [4]; 7.9 µM in [5]; 8.93 µM in [6]. In addition, the TGI in test [7] came out at 13.9 µM; in test [8] it was 7.49 µM; in [9] it was 7.36 µM; in test [10], 6.55 µM.

In the case of `CC1(C)C2CCC13C(=O)C1OC3(C2)C2C(=O)c3c(O)ccc(O)c3C(=O)C12` (stereo not drawn), the GI50 in [1] was 42.2 µM; in [2], 16.4 µM; in test [3], greater than 50.4 µM; in [4], 34.1 µM; in [5], 41 µM; in [6] it was 42.9 µM. Also, the GI50 in test [7] was 5.93 µM; in test [8] it was 48 µM; in test [10] it was 17.8 µM. Also, the TGI in test [1] was greater than 100 µM; in [2] it was 37.5 µM; in test [3], greater than 100 µM; in [4] it was greater than 83.4 µM; in [5] it was greater than 100 µM; in [6], greater than 100 µM. The TGI in [7] was greater than 46.6 µM; in test [8] it was greater than 100 µM; in [9], greater than 54.4 µM; in [10], 46.8 µM.

For the compound `Cc1ccc(S(=O)(=O)n2cc(C(=O)C(=O)Nc3ccncc3)c3ccccc32)cc1`, the GI50 is 19.6 µM in test [1]; 0.556 µM in [2]; 0.595 µM in [3]; 0.464 µM in [4]; 7.82 µM in [5]; 4.25 µM in test [6]. Besides, the GI50 in test [7] is 1.77 µM; in test [8] it was 1.56 µM; in test [10], 0.644 µM. Also, the TGI in [1] was 71.2 µM; in [2], greater than 60.7 µM; in test [3], greater than 84.6 µM; in test [4] it was 12.1 µM; in [5], greater than 100 µM; in test [6] it was greater than 100 µM. Besides, the TGI is greater than 76.5 µM in test [7], 6.84 µM in test [8], greater than 100 µM in test [9] and 7.01 µM in test [10].

For `COc1cc2c(cc1OC)[C@@]1(C)C(=O)c3cc4c(cc3[C@H]1N(C)C2=O)OCO4`, the GI50 was 95.5 µM in test [1]; greater than 100 µM in [2]; greater than 100 µM in test [3]; 88 µM in test [4]; 52.2 µM in test [5]; 74.7 µM in [6]. In addition, the GI50 is 33.3 µM in [7], 24 µM in test [8], 41.1 µM in test [9] and 28.8 µM in test [10]. The TGI in test [1], in test [2], in test [3], in [4], in test [5] and in test [6] was greater than 100 µM each time. Also, the TGI is greater than 100 µM in [7], 75.7 µM in [8], greater than 100 µM in test [9] and greater than 100 µM in test [10].
